The target in one data set is T1, human cathepsin L (Homo sapiens, UniProt P07711).
T1 construct: made in house
Briefly: Inhibition of cathepsin L, fluorogenic substrate Z-Leu-Arg-AMC. The format is biochemical. To be noted: for Mechanism of inhibition of cathepsin L / Ki: pH 5.5.

For data set [1], the target named is T2, human cathepsin B (Homo sapiens, UniProt P07858). As to the kind of experiment: Inhibition of cathepsin B, fluorogenic substrate Z-Phe-Arg-AMC. To be noted: for Ki: cathepsin B.
The nature of data set [2]: Solubility under the experimental conditions used. The format is physicochemical. To be noted: assay buffer of the cathepsin L inhibition screening, aqueous buffer; under the experimental conditions used (pH 5.5 assay buffer); read-out: Limited solubility. Here is the method:
The kinetic characterization of CA, CAPE, and CGA was initially performed under the same conditions as the inhibition screening (pH 5.5). All compounds acted as fast, linear inhibitors of cathepsin L, as observed for DPPI [17]. Kinetic mechanisms and inhibition parameters were determined by a combination of titration curves (plots of the residual enzyme activity (vX/v0) against the inhibitor concentration) and replots of the experimental data as specific velocity plots. The remaining titration curves were collected in Supplementary Figure S1. […] However, a more precise characterization of its effect was made difficult by its limited solubility of only up to about 200 μM under the experimental conditions used.

Another data set addresses T3, cathepsin K (Homo sapiens, UniProt P43235).
T3 sequence (P43235 115-329): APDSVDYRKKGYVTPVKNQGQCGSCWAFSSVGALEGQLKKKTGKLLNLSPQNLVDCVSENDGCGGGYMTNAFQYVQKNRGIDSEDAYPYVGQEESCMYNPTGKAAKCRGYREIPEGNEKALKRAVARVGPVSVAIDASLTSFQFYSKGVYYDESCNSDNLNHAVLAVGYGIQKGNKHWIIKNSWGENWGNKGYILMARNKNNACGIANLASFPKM
As to the kind of experiment: Inhibition of cathepsin K (results not shown). The format is biochemical. To be noted: confirmed in the authors' laboratory.

The target of data set [3] is T2, human cathepsin B. Briefly: Inhibition of peptidyl-dipeptidase activity of cathepsin B, substrate Abz-Gly-Ile-Val-Arg-Ala-Lys(Dnp)-OH. Particulars: pH 5.5, [S] = Km, read-out: IC50, peptidyl-peptidase activity of cathepsin B. The arrangement: made in house. The format is biochemical. Here is the method:
In addition, the peptidyl-dipeptidase activity of cathepsin B was measured with the internally quenched fluorigenic substrate Abz-Gly-Ile-Val-Arg-Ala-Lys(Dnp)-OH. Cleavage of this substrate was assessed at λex = 370 nm and λem = 430 nm. […] Nevertheless, appropriate correction of the inner filter effect was performed for all compounds according to the following reference.
For linear (complete) inhibitors, v∞ = 0.

Data set [4] relates to dipeptidyl-peptidase I (DPPI). The arrangement: method as in PMID 31574257. Particulars: previously characterized; cited from earlier work.
Setting [5] is: catalytic (uncompetitive) inhibition constant, read-out: KCa, cathepsin L.
Setting [6] is: specific (competitive) inhibition constant, read-out: KSp, cathepsin L.
[7] abbreviates: KCa, pH 5.5, catalytic (uncompetitive) inhibition constant.
The mark [8] stands for this setting: KCa, pH 7.4, catalytic (uncompetitive) inhibition constant.
The mark [9] stands for this setting: KSp, pH 7.4, specific (competitive) inhibition constant.
Where [10] appears, read: KSp, pH 5.5, specific (competitive) inhibition constant.

Data on 8 molecules can be found in publication PMC7824550 (Biomolecules, 2020).

Broadly, the IC50 is the midpoint of a concentration-inhibition curve. As usually defined, the solubility is the dissolved amount per volume that the medium holds.

Like-named read-outs stand apart in the source and are kept apart here. A value given as a limit tells only on which side of the number the result lay.

T1 sequence (P07711 114-333): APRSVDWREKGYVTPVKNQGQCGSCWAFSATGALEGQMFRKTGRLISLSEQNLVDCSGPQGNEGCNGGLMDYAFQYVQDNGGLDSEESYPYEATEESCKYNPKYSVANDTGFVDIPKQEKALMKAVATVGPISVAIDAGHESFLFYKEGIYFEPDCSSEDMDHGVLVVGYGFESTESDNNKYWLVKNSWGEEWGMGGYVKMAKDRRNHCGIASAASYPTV

With `O=C(O)C=Cc1ccc(O)cc1O` [2,4-Dihydroxy-cinnamic acid, 2,4-dihydroxycinnamic acid], the IC50 turned out to be 930 ± 150 µM at human cathepsin L and 910 ± 30 µM at human cathepsin B [1].

As for `O=C(/C=C/c1ccc(O)c(O)c1)OCCc1ccccc1` [Caffeic acid phenethyl ester, caffeic acid phenethyl ester], the IC50 against human cathepsin L came to 190 ± 30 µM; at human cathepsin B [3], 100 ± 20 µM; on human cathepsin B [1], 470 ± 30 µM. Also, the “Mechanism of inhibition of cathepsin L” value on human cathepsin L is on record as “Mixed”. Further, the Ki on human cathepsin L (setting [5]) amounted to 170 ± 30 µM; at human cathepsin L (setting [6]), 120 ± 70 µM; at human cathepsin B [1] (setting [7]), 140 ± 10 µM; on human cathepsin B [1] (setting [8]), 70 ± 19 µM; on human cathepsin B [1] (setting [9]) it was 107 ± 38 µM. Further, in data set [2], the solubility is ~200 µM. The “Inhibition of cathepsin K” value on cathepsin K is given as “no inhibition”. Moreover, the figures for the “Mechanism of inhibition of cathepsin B” value at human cathepsin B [1] (pH 5.5) and on human cathepsin B [1] (pH 7.4) were “Catalytic” and “Mixed”, respectively.

With `O=C(O)C=Cc1ccc(O)c(O)c1` [Caffeic acid, 3,4-dihydroxycinnamic acid], the IC50 against human cathepsin L is > 1000 µM; at human cathepsin B [3], > 1000 µM; against human cathepsin B [1], 110 ± 10 µM. Also, the “Mechanism of inhibition of cathepsin L” value on human cathepsin L was “Mixed”. The Ki came out at 1270 ± 120 µM at human cathepsin L (setting [5]); 740 ± 70 µM on human cathepsin L (setting [6]); 82 ± 16 µM at human cathepsin B [1] (setting [7]); 46 ± 4 µM on human cathepsin B [1] (setting [8]); 270 ± 140 µM on human cathepsin B [1] (setting [10]). For the same molecule, the “Inhibition of cathepsin K” value at cathepsin K is “no inhibition”. In addition, the “Mechanism of inhibition of DPPI” value in data set [4] is “linear, mixed balanced”. Moreover, the “Mechanism of inhibition of cathepsin B” value at human cathepsin B [1] (pH 7.4) is reported as “Catalytic”.

As to `O=C(/C=C/c1ccc(O)c(O)c1)O[C@@H]1C[C@](O)(C(=O)O)C[C@@H](O)[C@H]1O` [Chlorogenic acid, chlorogenic acid], the IC50 stood at 480 ± 20 µM on human cathepsin L, 360 ± 60 µM at human cathepsin B [3] and 340 ± 20 µM against human cathepsin B [1]. Moreover, the “Mechanism of inhibition of cathepsin L” value on human cathepsin L is on record as “Mixed”. Moreover, the Ki on human cathepsin L (setting [5]) amounted to 670 ± 60 µM; at human cathepsin L (setting [6]), 330 ± 20 µM; on human cathepsin B [1] (setting [7]), 1200 ± 1100 µM; at human cathepsin B [1] (setting [8]), 92 ± 15 µM; on human cathepsin B [1] (setting [10]) it was 340 ± 80 µM; on human cathepsin B [1] (setting [9]), 92 ± 15 µM. Moreover, in data set [4], the “Mechanism of inhibition of DPPI” value is recorded as “linear catalytic”. In addition, the “Mechanism of inhibition of cathepsin B” value on human cathepsin B [1] (pH 5.5) is “Mixed”; at human cathepsin B [1] (pH 7.4), “Mixed balanced”.

As to `O=C(O)/C=C/c1ccccc1` [Cinnamic acid], the IC50 against human cathepsin L and against human cathepsin B [1] was > 1000 µM in each case.

In the case of `O=C(O)CCc1ccc(O)c(O)c1` [Hydrocaffeic acid, 3-(3,4-Dihydroxyphenyl) propionic acid], the IC50 against human cathepsin L and against human cathepsin B [1] was > 1000 µM in each case.

For `O=C(O)/C=C/c1ccccc1O` [o-Coumaric acid], the IC50 against human cathepsin L and on human cathepsin B [1] was > 1000 µM throughout.

Turning to `O=C(O)C=Cc1ccc(O)cc1` [p-Coumaric acid], the IC50 at human cathepsin L was > 1000 µM.
